Tests used:
Assay in all cases: Eurofins kinase selectivity profile against 380 other human recombinant kinases (Table S2)
Assay type in all cases: biochemical
[1] = biological target: T1, 380 human recombinant protein kinases (Homo sapiens, UniProt P08581); conditions: Met(h), read-out: Inhibition rate
T1 construct: purchased Eurofins (Celle Lévescault)
In short: (§1)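 Off-target profiling: one compound assayed by a commercial provider over 380 recombinant human protein kinases at various concentrations.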

[2] = biological target: T2, 380 human recombinant protein kinases (Homo sapiens, UniProt Q13627); conditions: DYRK1A(h), read-out: Inhibition rate
T2 construct: purchased Eurofins (Celle Lévescault)
In short: as §1

[3] = biological target: T3, 380 human recombinant protein kinases (Homo sapiens, UniProt Q15208); conditions: NDR1(h), read-out: Inhibition rate
T3 construct: purchased Eurofins (Celle Lévescault)
T3 sequence (Q15208 whole entry): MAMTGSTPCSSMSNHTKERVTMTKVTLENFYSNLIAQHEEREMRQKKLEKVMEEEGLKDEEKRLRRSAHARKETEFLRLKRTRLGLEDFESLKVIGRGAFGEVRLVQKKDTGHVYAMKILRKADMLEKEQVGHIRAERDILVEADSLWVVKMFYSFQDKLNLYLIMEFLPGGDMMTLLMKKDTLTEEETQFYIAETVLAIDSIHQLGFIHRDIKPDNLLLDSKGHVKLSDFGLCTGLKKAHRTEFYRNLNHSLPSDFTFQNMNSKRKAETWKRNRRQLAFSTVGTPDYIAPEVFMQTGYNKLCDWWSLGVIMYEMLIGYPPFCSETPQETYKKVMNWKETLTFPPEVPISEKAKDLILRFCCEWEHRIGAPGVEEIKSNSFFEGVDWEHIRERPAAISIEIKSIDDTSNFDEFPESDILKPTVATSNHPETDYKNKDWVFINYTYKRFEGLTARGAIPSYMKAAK
In short: as §1

[4] = biological target: T4, 380 human recombinant protein kinases (Homo sapiens, UniProt Q16620); conditions: TrkB(h), read-out: Inhibition rate (%)
T4 construct: purchased Eurofins (Celle Lévescault)
T4 sequence (Q16620 32-822): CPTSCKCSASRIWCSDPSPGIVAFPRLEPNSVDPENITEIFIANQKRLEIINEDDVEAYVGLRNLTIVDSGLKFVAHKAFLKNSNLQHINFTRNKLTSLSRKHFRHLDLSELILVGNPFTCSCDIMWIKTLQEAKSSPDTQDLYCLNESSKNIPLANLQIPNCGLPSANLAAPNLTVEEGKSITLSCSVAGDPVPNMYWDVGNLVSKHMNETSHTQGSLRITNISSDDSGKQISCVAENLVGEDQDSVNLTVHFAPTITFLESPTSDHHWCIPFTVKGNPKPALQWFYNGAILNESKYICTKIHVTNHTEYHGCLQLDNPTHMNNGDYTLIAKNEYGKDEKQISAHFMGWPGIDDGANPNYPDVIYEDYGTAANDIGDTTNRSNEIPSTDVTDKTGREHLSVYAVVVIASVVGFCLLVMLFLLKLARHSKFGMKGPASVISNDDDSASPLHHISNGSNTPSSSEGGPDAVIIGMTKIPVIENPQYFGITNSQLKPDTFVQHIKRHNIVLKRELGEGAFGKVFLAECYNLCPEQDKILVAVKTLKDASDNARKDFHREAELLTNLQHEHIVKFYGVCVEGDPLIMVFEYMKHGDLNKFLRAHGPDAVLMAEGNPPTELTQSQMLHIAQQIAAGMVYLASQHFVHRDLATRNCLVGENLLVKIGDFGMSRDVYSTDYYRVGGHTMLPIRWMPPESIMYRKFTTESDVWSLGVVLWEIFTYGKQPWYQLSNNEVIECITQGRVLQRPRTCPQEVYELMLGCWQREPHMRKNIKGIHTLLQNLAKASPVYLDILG
In short: as §1

[5] = biological target: T5, 380 human recombinant protein kinases (Homo sapiens, UniProt Q8TD19); conditions: NEK9(h), read-out: Inhibition rate
T5 construct: purchased Eurofins (Celle Lévescault)
T5 sequence (Q8TD19 1-979): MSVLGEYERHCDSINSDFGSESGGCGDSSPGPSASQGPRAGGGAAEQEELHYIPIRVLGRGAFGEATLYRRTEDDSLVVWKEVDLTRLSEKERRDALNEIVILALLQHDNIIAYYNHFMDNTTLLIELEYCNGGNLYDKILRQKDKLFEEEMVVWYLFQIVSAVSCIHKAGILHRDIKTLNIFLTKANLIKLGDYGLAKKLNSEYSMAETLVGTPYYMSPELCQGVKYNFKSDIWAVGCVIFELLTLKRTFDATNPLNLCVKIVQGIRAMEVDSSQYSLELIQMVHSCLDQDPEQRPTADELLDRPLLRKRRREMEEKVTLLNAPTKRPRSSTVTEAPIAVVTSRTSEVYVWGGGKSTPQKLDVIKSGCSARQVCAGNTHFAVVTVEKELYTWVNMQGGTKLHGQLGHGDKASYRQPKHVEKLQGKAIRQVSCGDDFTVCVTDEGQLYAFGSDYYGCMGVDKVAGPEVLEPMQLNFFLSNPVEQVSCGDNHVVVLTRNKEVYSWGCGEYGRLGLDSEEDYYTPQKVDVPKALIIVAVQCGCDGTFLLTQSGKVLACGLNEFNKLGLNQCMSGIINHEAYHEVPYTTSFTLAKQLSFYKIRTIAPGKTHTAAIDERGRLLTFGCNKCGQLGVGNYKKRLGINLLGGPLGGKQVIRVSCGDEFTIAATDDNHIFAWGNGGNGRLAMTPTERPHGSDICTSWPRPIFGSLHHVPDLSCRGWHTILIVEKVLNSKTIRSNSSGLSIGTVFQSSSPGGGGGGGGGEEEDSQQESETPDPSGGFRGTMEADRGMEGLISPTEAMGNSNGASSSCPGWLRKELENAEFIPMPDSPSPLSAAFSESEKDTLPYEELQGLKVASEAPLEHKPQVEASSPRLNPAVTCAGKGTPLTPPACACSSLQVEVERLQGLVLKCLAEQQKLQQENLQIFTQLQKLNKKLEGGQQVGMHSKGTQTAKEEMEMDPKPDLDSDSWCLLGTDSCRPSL
In short: as §1

[6] = biological target: T6, 380 human recombinant protein kinases (Homo sapiens, UniProt Q9NZJ5); conditions: PEK(h), read-out: Inhibition rate
T6 construct: purchased Eurofins (Celle Lévescault)
T6 sequence (Q9NZJ5 30-1116): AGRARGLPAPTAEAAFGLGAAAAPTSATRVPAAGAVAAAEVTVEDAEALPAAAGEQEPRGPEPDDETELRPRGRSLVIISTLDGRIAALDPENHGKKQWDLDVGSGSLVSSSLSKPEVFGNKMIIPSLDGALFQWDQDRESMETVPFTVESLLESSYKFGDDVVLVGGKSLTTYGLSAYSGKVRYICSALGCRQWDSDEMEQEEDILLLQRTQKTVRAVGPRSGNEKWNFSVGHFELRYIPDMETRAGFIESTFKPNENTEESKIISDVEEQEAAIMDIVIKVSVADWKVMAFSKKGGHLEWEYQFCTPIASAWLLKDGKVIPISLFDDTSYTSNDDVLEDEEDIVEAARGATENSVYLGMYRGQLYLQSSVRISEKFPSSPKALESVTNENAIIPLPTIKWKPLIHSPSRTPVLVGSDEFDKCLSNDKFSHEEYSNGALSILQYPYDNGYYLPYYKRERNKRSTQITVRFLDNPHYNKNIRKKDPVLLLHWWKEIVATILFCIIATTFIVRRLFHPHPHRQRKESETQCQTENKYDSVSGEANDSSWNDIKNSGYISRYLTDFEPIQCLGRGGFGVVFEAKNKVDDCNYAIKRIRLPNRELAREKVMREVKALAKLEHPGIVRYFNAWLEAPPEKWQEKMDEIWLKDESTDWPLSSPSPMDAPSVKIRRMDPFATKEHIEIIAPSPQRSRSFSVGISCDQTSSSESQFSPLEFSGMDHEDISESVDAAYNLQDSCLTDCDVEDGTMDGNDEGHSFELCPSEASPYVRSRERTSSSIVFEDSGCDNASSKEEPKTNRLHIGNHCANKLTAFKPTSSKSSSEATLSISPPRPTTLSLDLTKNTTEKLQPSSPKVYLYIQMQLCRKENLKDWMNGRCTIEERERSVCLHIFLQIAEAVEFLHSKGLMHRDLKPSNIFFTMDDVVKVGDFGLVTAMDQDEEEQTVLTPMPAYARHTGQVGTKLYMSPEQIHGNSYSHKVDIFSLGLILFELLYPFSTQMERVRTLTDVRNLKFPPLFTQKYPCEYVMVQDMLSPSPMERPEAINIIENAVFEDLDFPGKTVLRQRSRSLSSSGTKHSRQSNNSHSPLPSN
In short: as §1

T1 sequence (P08581 25-1390): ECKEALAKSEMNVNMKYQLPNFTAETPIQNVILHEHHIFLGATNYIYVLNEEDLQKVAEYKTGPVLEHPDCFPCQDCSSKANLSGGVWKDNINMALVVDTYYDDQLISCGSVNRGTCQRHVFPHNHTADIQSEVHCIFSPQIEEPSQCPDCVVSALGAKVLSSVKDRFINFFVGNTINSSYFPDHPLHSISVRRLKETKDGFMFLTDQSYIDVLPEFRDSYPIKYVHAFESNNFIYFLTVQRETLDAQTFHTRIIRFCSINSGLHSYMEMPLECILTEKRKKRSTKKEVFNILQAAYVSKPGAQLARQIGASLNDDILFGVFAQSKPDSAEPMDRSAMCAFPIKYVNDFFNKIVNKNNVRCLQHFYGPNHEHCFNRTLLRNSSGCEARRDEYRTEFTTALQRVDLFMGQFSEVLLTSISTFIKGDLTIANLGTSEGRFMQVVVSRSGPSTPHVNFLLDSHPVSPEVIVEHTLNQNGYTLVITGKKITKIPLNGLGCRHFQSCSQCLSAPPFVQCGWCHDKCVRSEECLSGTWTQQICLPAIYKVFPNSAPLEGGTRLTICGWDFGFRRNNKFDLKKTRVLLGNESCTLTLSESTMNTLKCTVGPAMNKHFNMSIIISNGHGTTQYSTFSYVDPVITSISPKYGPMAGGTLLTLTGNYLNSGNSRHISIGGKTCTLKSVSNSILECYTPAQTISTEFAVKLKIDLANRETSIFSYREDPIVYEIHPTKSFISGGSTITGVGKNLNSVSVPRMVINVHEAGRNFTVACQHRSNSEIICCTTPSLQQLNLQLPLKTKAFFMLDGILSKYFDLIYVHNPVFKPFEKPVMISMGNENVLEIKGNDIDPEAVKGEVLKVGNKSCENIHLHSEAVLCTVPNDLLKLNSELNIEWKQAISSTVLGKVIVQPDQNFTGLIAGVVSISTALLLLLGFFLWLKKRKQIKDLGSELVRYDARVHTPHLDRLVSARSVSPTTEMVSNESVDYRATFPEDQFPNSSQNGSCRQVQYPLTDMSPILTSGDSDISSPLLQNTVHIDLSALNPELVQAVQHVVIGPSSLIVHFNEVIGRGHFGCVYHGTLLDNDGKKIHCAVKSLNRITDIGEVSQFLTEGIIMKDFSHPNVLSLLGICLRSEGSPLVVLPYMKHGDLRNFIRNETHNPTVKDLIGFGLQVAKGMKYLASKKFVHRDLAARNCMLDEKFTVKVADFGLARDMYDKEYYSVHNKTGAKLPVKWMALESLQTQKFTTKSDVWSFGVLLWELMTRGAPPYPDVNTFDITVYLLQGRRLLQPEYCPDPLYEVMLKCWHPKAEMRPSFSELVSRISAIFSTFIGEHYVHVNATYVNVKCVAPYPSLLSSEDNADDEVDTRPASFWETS

## C=CC(=O)Nc1cc(-c2cc(-c3cc4c([nH]3)CCNC4=O)ccn2)ccc1OC(F)(F)F [compound 11]
[1]; 10 nM
  inhibition at 0.01 µM: 6%
[1]; 100 nM
  inhibition at 0.1 µM: 21%
[1]; 1000 nM
  inhibition at 1 µM: 62%
[2]; 10 nM
  inhibition at 0.01 µM: 20%
[2]; 100 nM
  inhibition at 0.1 µM: 76%
[2]; 1000 nM
  inhibition at 1 µM: 96%
[3]; 10 nM
  inhibition at 0.01 µM: -17%
[3]; 100 nM
  inhibition at 0.1 µM: -14%
[3]; 1000 nM
  inhibition at 1 µM: -12%
[4]; 10 nM
  inhibition at 0.01 µM: -6%
[4]; 100 nM
  inhibition at 0.1 µM: -9%
[4]; 1000 nM
  inhibition at 1 µM: -20%
[5]; 10 nM
  inhibition at 0.01 µM: -2%
[5]; 100 nM
  inhibition at 0.1 µM: -6%
[5]; 1000 nM
  inhibition at 1 µM: 1%
[6]; 10 nM
  inhibition at 0.01 µM: -1%
[6]; 100 nM
  inhibition at 0.1 µM: -9%
[6]; 1000 nM
  inhibition at 1 µM: 2%

Reference: paper PMC11233931, “Remodeling tumor‐associated macrophage for anti‐cancer effects by rational design of irreversible inhibition of mitogen‐activated protein kinase‐activated protein kinase 2” (MedComm, 2024)
